{"source": "patent US20100196512A1", "about": "“Treatment of Non-Oral Biological Tissue with Chlorine Dioxide” (priority 2009, published 2010)", "key": {"[1]": {"tested_on": "methicillin resistant Staphylococcus aureus (MRSA) biofilm", "assay": "Kill of MRSA biofilm grown on ceramic disks by chlorine dioxide solution", "format": "cell-based", "from_the_text": "(§1) Chlorine dioxide treatment involves exposing micro-organisms to chlorine dioxide for a period of time. Treatment conditions, often called the “dose or dosage” of chlorine dioxide, can be determined by calculating the integral of the chlorine dioxide concentration as a function of time, C(t), over the treatment time of use:\n(§2) In systems where the chlorine dioxide concentration is generally constant over the treatment time (e.g., varies by less than ±10% relative) or varies linearly over the treatment time, an average chlorine dioxide concentration may be calculated by averaging the starting and ending concentrations and then multiplying that average chlorine dioxide concentration during an exposure period by the time of exposure (Average Concentration X Time). Dose is commonly given in units of ppm-minutes.\n(§3) A series of experiments were conducted to estimate the dose of chlorine dioxide needed to kill bacterial biofilms consisting of Pseudomonas aeruginosa (PA), methicillin resistant Staphylococcus aureus (MRSA), or a combination of both.\n(§4) Bacterial biofilms were grown for between 7 and 10 days on non-porous ceramic disks in a spinning disk biofilm reactor. The reactors were inoculated with PA, MRSA, or a mixture of MRSA and PA bacteria to produce PA, MRSA, or mixed PA/MRSA biofilms respectively.\n(§5) Chlorine dioxide solutions were produced at different nominal concentrations using ASEPTROL® S-Tab 10 tablets, and the exact concentrations were then measured using a Hach Model 2400 UV/Vis spectrophotometer in accordance with the manufacturer's instructions. Pairs of biofilm-containing disks were immersed for different times in solutions of different chlorine dioxide concentrations, neutralized with dilute sodium thiosulfate solution, and then plated to determine the number of surviving bacteria on each disk. Two untreated disks were also exposed to neutralizing solution and plated to determine the starting bacterial counts. In all tests, the baseline bacterial counts were in the range of 10^7 to 10^7.5 colony-forming units per disk (cfu/disk). A one log reduction refers to reducing the cfu/disk by one order of magnitude, e.g., a reduction from 10^7.1 cfu/disk to 10^6.1 cfu/disk. Accordingly, a substantially complete kill is achieved if the log reduction of bacteria is about 7 to 7.5.\n(§6) The table summarizes the test conditions used in the different experiments, and presents the results in terms of log reduction of the different bacterial organisms. In the case of mixed PA/MRSA biofilms, results are given as total bacteria."}, "[2]": {"tested_on": "Pseudomonas aeruginosa (PA) biofilm", "assay": "Kill of PA biofilm grown on ceramic disks by chlorine dioxide solution", "format": "cell-based", "from_the_text": "as §1, §2, §3, §4, §5, §6"}, "[3]": {"tested_on": "mixed PA/MRSA biofilm (total bacteria)", "assay": "Kill of mixed PA/MRSA biofilm grown on ceramic disks by chlorine dioxide solution", "format": "cell-based, Staphylococcus aureus and Pseudomonas aeruginosa", "conditions": "for Log Reduction in Organism Count: MRSA + PA biofilm, total bacteria", "from_the_text": "as §1, §2, §3, §4, §5, §6"}}, "data": [{"smiles": "[O][Cl+][O-]", "note": "[ClO2, chlorine dioxide]", "values": [{"measurement": "Log Reduction in Organism Count", "setting": "[1]; Sample 1, exposure 1.0 minutes, ClO2 208 ppm, 208 ppm-min", "result": 5.5}, {"measurement": "Log Reduction in Organism Count", "setting": "[1]; Sample 2, exposure 5.0 minutes, ClO2 204 ppm, 1020 ppm-min", "result": 7.1}, {"measurement": "Log Reduction in Organism Count", "setting": "[1]; Sample 3 (second line), exposure 30.0 minutes, ClO2 40 ppm, 1200 ppm-min", "result": 5.1}, {"measurement": "Log Reduction in Organism Count", "setting": "[1]; Sample 3, exposure 10.0 minutes, ClO2 45 ppm, 450 ppm-min", "result": 5.5}, {"measurement": "Log Reduction in Organism Count", "setting": "[1]; Sample 4, exposure 30.0 minutes, ClO2 175 ppm, 5250 ppm-min", "result": 7.1}, {"measurement": "dose for a kill of about 5 orders of magnitude (5 log)", "setting": "[1]; see Sample 1", "result": "greater than 200 ppm-min"}, {"measurement": "Log Reduction in Organism Count", "setting": "[2]; Sample 6, exposure 0.5 minutes, ClO2 200 ppm, 100 ppm-min", "result": 5.9}, {"measurement": "Log Reduction in Organism Count", "setting": "[2]; Sample 7, exposure 5.0 minutes, ClO2 43 ppm, […]-min", "result": 5.7}, {"measurement": "Log Reduction in Organism Count", "setting": "[2]; Sample 8, exposure 5.0 minutes, ClO2 187 ppm, 935 ppm-min", "result": 7.5}, {"measurement": "Log Reduction in Organism Count", "setting": "[2]; Sample 9, exposure 10.0 minutes, ClO2 37 ppm, 370 ppm-min", "result": 7.5}, {"measurement": "Log Reduction in Organism Count", "setting": "[2]; Sample 10, exposure 50.0 minutes, ClO2 35 ppm, 1750 ppm-min", "result": 7.5}, {"measurement": "Log Reduction in Organism Count", "setting": "[2]; Sample 11, exposure 50.0 minutes, ClO2 166 ppm, 8300 ppm-min", "result": 7.5}, {"measurement": "dose for a kill of about 5 orders of magnitude (5 log)", "setting": "[2]; see Sample 7", "result": "greater than 200 ppm-min"}, {"measurement": "Log Reduction in Organism Count", "setting": "[3]; Sample 12, exposure 10.0 minutes, ClO2 52 ppm, 520 ppm-min", "result": 5.5}, {"measurement": "Log Reduction in Organism Count", "setting": "[3]; Sample 13, exposure 30.0 minutes, ClO2 52 ppm, 1560 ppm-min", "result": 7.4}, {"measurement": "Log Reduction in Organism Count", "setting": "[3]; Sample 14, exposure 1.0 minutes, ClO2 181 ppm, 181 ppm-min", "result": 5.1}, {"measurement": "Log Reduction in Organism Count", "setting": "[3]; Sample 15, exposure 5.0 minutes, ClO2 160 ppm, 800 ppm-min", "result": 7.4}, {"measurement": "Log Reduction in Organism Count", "setting": "[3]; Sample 16, exposure 30.0 minutes, ClO2 160 ppm, 4800 ppm-min", "result": 7.4}, {"measurement": "dose for a kill of about 5 orders of magnitude (5 log)", "setting": "[3]; mixed PA/MRSA biofilm, see Sample 12", "result": "greater than 200 ppm-min"}]}]}
